5 compounds from ChEMBL document CHEMBL1806432, “Cytotoxic diterpenoid quinonemethides from the roots of Pygmacopremna herbacea” (Bioorg Med Chem Lett, 2011) can be followed below.

Common to all, as to assay type: functional, cell-based
The test system of one experiment is HepG2. The experiment is described as follows: Cytotoxicity against human HepG2 cells after 48 hrs by MTT assay. As to conditions: HepG2, 48 h. A general note: Formazan colour is commonly taken as a measure of viable cells.
The next experiment relates to MCF7. Description: Cytotoxicity against human MCF7 cells after 48 hrs by MTT assay. As to conditions: MCF7, 48 h.
The next experiment relates to A549. The experiment is described as follows: Cytotoxicity against human A549 cells after 48 hrs by MTT assay. Particulars: A549, 48 h.
Another experiment concerns PC-3. Description: Cytotoxicity against human PC3 cells after 48 hrs by MTT assay. As to conditions: PC-3, 48 h.
In a further experiment the test system is HeLa. The experiment is described as follows: Cytotoxicity against human HeLa cells after 48 hrs by MTT assay.

Converted amounts (≈) assume the structure as drawn.

For the compound `CC(C)C1=CC2=CC=C3C(C)(C)COC(=O)[C@@]3(C)CC2=C(O)C1=O` [NEOBHARANGIN], the 50% inhibitory concentration (IC50) is 13 µg/mL (≈ 39.6 µM) in the experiment on HepG2; 0.39 µg/mL (≈ 1.19 µM) with MCF7; 2.61 µg/mL (≈ 7.95 µM) with A549; 48.6 µg/mL (≈ 148 µM) with PC-3; 104 µg/mL (≈ 318 µM) in the experiment with HeLa.

Take `CC(C)C1=CC2=CC=C3C(C)(C)CC(=O)O[C@@]3(C)CC2=C(O)C1=O` [BHARANGIN]: the IC50 stood at 14.3 µg/mL (≈ 43.5 µM) with HepG2; 0.006 µg/mL (≈ 0.0183 µM) with MCF7; 2.03 µg/mL (≈ 6.18 µM) in the experiment with A549; 2.95 µg/mL (≈ 8.98 µM) in the experiment with PC-3; 14.1 µg/mL (≈ 42.9 µM) with HeLa.

As for `COc1cccc2c1C(=O)c1c(O)c3c(c(O)c1C2=O)C[C@@](O)(C(=O)CO)C[C@@H]3O[C@H]1C[C@H](N)[C@H](O)[C@H](C)O1` [DOXORUBICIN], the IC50 in the experiment with HepG2 turned out to be 1.6 µg/mL (≈ 2.94 µM); in the experiment with A549 it was 0.51 µg/mL (≈ 0.938 µM); in the experiment with PC-3 it was 2.3 µg/mL (≈ 4.23 µM); in the experiment with HeLa it was 0.24 µg/mL (≈ 0.442 µM).

In the case of `CC(C)C1=CC2=CC=C3C(C)(C)CC(=O)C[C@@]3(C)C2=C(O)C1=O`, the IC50 in the experiment with HepG2 was 38.2 µg/mL (≈ 122 µM); with MCF7, 27.6 µg/mL (≈ 88.3 µM); in the experiment on A549, 17.6 µg/mL (≈ 56.3 µM); in the experiment with PC-3, 1.7 µg/mL (≈ 5.44 µM); with HeLa, 15.6 µg/mL (≈ 49.9 µM).

Turning to `CC(C)C1=CC2=CC=C3C(C)(C)[C@@H](O)C(=O)C[C@]3(C)C2=C(O)C1=O` [ISOBHARANGIN], the IC50 in the experiment on HepG2 is 6.29 µg/mL (≈ 19.2 µM); with MCF7, 28.2 µg/mL (≈ 85.9 µM); with A549, 24.1 µg/mL (≈ 73.4 µM); in the experiment with PC-3, 62.2 µg/mL (≈ 189 µM); with HeLa, 103 µg/mL (≈ 315 µM).

As a reminder, the IC50 is the concentration at which inhibition is half-maximal.
